Values quoted from earlier work as cited in PMC4922569, “Antifibrotic Effects of the Dual CCR2/CCR5 Antagonist Cenicriviroc in Animal Models of Liver and Kidney Fibrosis” (PLoS ONE, 2016).
Where a name gives a salt, the structure may show the parent alone.

Conditions: in rats; cited from earlier work

CCCCOCCOc1ccc(-c2ccc3c(c2)/C=C(/C(=O)Nc2ccc([S@@+]([O-])Cc4cncn4CCC)cc2)CCCN3CC(C)C)cc1 [CVC, cenicriviroc mesylate]
Half-life: 4 to 5 h
